# Like-named read-outs stand apart in the source and are kept apart here.
# How the values were obtained:
# HS 27 fibroblasts = assay: Antiproliferative screening against HS 27 fibroblasts; assay type: cell-based; details: HS-27 Fibroblasts (normal cells), concentration producing 50% inhibition
# Description: It was conducted following the previously reported protocol.
# (§1) Due to over-expression of FMS kinase in certain types of tumours such as ovarian, prostate, and breast[5–7] cancers, we decided to test the antiproliferative activity of compound 1r against a panel of six ovarian, two prostate, and five breast cancer cell lines. It was also tested against HS 27 fibroblasts in order to investigate the selectivity indexes. The results were compared with those of KIST101029 as a reference standard.
# [1] = test system: bone marrow-derived macrophages (BMDM); assay: BMDM assay, CSF-1-induced BMDM growth (Alamar Blue); assay type: cell-based, C57BL6 murine; details: 5 days, triplicate assay, mean ± SEM, 10-dose from 1 µM, read-out: IC50 against bone marrow-derived macrophages (BMDM)
# Description: The macrophages were isolated from C57BL6 murine bone marrow using Miltenyi Biotec MACS beads (CD11b). The macrophages (30,000 cells/well) were cultured in RPMI 1640 medium containing 10% foetal bovine serum, 2-mercaptoethanol ([…]), and the test compound for 1 h at 37 °C in the presence of 5% CO2. CSF-1 (20 ng/mL) was then added and the system was incubated for 5 days. Each compound was tested in a 10-dose testing mode, threefold serial dilution starting with 1 µM concentration. The inhibitory effects of the tested compounds against CSF-1-induced BMDM growth were determined using Alamar Blue^TM (Serotec).
# FMS over-expression contributes to inflammatory disorders as explained in the Introduction section. So compounds 1r and KIST101029 were tested for their ability to inhibit CSF-1-induced BMDM growth. […] So, the compound 1r can be a promising candidate for future development of anti-arthritic drugs.
# Each compound was tested in a 10-dose testing mode, threefold serial dilution starting with 1 µM concentration.
# [2] = test system: MCF7 breast cancer cell line; assay: NCI antiproliferative screening, 5-dose; assay type: cell-based; details: for IC50: concentration producing 50% inhibition, mean of duplicate experiments; for TGI: concentration producing 100% inhibition
# Description: (§2) Compounds 1r and KIST101029 were tested at the National Cancer Institute (NCI, Bethesda, MD) following their standard protocol [https://dtp.cancer.gov/discovery_development/nci-60/methodology.htm].
# as §1
# [3] = test system: OVCAR-4 ovarian cancer cell line; assay: NCI antiproliferative screening, 5-dose; assay type: cell-based; details: for IC50: concentration producing 50% inhibition, mean of duplicate experiments; for TGI: concentration producing 100% inhibition
# Description: as §2, §1
# [4] = test system: OVCAR-3 ovarian cancer cell line; assay: NCI antiproliferative screening, 5-dose; assay type: cell-based; details: for IC50: concentration producing 50% inhibition, mean of duplicate experiments; for TGI: concentration producing 100% inhibition
# Description: as §2, §1
# [5] = test system: OVCAR-5 ovarian cancer cell line; assay: NCI antiproliferative screening, 5-dose; assay type: cell-based; details: for IC50: concentration producing 50% inhibition, mean of duplicate experiments; for TGI: concentration producing 100% inhibition
# Description: as §2, §1
# [6] = test system: DU-145 prostate cancer cell line; assay: NCI antiproliferative screening, 5-dose; assay type: cell-based; details: for IC50: concentration producing 50% inhibition, mean of duplicate experiments; for TGI: concentration producing 100% inhibition
# Description: as §2, §1
# [7] = test system: OVCAR-8 ovarian cancer cell line; assay: NCI antiproliferative screening, 5-dose; assay type: cell-based; details: for IC50: concentration producing 50% inhibition, mean of duplicate experiments; for TGI: concentration producing 100% inhibition
# Description: as §2, §1
# [8] = test system: MDA-MB-231/ATCC breast cancer cell line; assay: NCI antiproliferative screening, 5-dose; assay type: cell-based; details: for IC50: concentration producing 50% inhibition, mean of duplicate experiments; for TGI: concentration producing 100% inhibition
# Description: as §2, §1
# [9] = test system: PC-3 prostate cancer cell line; assay: NCI antiproliferative screening, 5-dose; assay type: cell-based; details: for IC50: concentration producing 50% inhibition, mean of duplicate experiments; for TGI: concentration producing 100% inhibition
# Description: as §2, §1
# [10] = test system: MDA-MB-468 breast cancer cell line; assay: NCI antiproliferative screening, 5-dose; assay type: cell-based; details: for IC50: concentration producing 50% inhibition, mean of duplicate experiments; for TGI: concentration producing 100% inhibition
# Description: as §2, §1
# [11] = test system: NCI/ADR-RES ovarian cancer cell line; assay: NCI antiproliferative screening, 5-dose; assay type: cell-based; details: for IC50: concentration producing 50% inhibition, mean of duplicate experiments; for TGI: concentration producing 100% inhibition
# Description: as §2, §1
# [12] = test system: HS 578T breast cancer cell line; assay: NCI antiproliferative screening, 5-dose; assay type: cell-based; details: for IC50: concentration producing 50% inhibition, mean of duplicate experiments; for TGI: concentration producing 100% inhibition
# Description: as §2, §1
# [13] = test system: T-47D breast cancer cell line; assay: NCI antiproliferative screening, 5-dose; assay type: cell-based; details: for IC50: concentration producing 50% inhibition, mean of duplicate experiments; for TGI: concentration producing 100% inhibition
# Description: as §2, §1
# [14] = test system: IGROV1 ovarian cancer cell line; assay: NCI antiproliferative screening, 5-dose; assay type: cell-based; details: for IC50: mean of duplicate experiments; for TGI: concentration producing 100% inhibition
# Description: as §2, §1
# [15] = test system: panel of six ovarian, two prostate, and five breast cancer cell lines; assay: NCI antiproliferative screening, whole panel; assay type: cell-based; details: read-out: IC50 values, range over the cancer cell line panel
# Description: as §2, §1
# FMS kinase = biological target: T1, FMS kinase (Homo sapiens, UniProt P07333); assay: Kinase HotSpot cell-free enzyme assay, FMS kinase; assay type: biochemical
# T1 construct: purchased Reaction Biology Corp
# T1 sequence (P07333 20-972): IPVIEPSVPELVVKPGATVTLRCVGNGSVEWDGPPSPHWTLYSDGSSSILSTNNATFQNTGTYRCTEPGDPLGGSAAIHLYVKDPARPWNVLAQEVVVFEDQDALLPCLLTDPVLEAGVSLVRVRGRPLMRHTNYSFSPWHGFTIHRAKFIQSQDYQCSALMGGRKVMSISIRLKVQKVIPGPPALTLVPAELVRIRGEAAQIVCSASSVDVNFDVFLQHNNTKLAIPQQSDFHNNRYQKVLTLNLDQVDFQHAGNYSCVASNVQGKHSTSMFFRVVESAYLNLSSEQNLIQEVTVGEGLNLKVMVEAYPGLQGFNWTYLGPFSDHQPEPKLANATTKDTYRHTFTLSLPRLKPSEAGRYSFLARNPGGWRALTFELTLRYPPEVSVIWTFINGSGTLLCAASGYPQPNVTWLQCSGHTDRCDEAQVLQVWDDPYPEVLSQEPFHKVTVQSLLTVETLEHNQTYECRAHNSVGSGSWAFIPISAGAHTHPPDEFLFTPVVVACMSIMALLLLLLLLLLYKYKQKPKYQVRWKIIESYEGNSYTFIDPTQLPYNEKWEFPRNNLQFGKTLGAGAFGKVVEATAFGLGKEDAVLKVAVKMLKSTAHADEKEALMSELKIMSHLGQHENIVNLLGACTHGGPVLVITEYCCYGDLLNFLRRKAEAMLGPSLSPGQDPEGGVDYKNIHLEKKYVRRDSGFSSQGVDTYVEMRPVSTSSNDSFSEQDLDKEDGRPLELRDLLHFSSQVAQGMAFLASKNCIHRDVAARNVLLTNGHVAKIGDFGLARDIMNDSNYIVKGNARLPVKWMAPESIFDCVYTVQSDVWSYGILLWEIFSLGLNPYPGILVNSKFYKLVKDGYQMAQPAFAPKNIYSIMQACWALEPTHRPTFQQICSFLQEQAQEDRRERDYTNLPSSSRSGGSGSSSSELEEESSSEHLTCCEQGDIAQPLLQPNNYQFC
# Description: (§3) Reaction Biology Corp. Kinase HotSpot^SM service [http://www.reactionbiology.com] was utilised for screening of the target compounds as per the protocol reported in the literature.
# Compounds 1a–r were tested in a 10-dose testing mode starting with 81 µM, threefold serial dilutions, against FMS kinase in a cell-free enzyme assay. […] This can be due to occupancy of a hydrophobic pocket with that additional benzoyl moiety and/or formation of additional hydrogen bond by the carbonyl oxygen.
# [16] = test system: panel of 40 kinases including FMS; assay: Kinase HotSpot 40-kinase panel, summary over the other kinases; assay type: biochemical; details: 1 µM; kinases other than FMS, FLT3 (D835Y) and c-MET
# Description: as §3
# Compound 1r was tested against a panel of 40 kinases including FMS. […] Its inhibition percentages against FLT3 (D835Y) and c-MET kinases were 42% and 40%, respectively. So its IC50 values against both of them will be in micromolar scale. […] The inhibition percentages exerted by compound 1r against the other 37 tested kinases were less than 28%.
smiles,measurement,setting,value
"O=C(Nc1cccc(-n2ccc3c(NC(=O)c4ccccc4)nccc32)c1)c1ccc(N2CCOCC2)c(C(F)(F)F)c1 [KIST101029, reference compound]",IC50,"HS 27 fibroblasts; Homo sapiens, HS27",300 nM
same,IC50,"[1]; Mus musculus, 120 h",195 ± 6 nM
same,IC50,[2]; Homo sapiens,40 nM
same,TGI,[2],54000 nM
same,IC50,[3]; Homo sapiens,240 nM
same,TGI,[3],50000 nM
same,IC50,[4]; Homo sapiens,20 nM
same,TGI,[4],50 nM
same,IC50,[5]; Homo sapiens,200 nM
same,TGI,[5],>100000 nM
same,IC50,[6]; Homo sapiens,40 nM
same,TGI,[6],100 nM
same,IC50,[7]; Homo sapiens,60 nM
same,TGI,[7],>100000 nM
same,IC50,[8]; Homo sapiens,160 nM
same,TGI,[8],3420 nM
same,IC50,[9],60 nM
same,TGI,[9],>100000 nM
same,IC50,[10]; Homo sapiens,30 nM
same,TGI,[10],100 nM
same,IC50,[11]; Homo sapiens,40 nM
same,TGI,[11],26400 nM
same,IC50,[12]; Homo sapiens,990 nM
same,TGI,[12],97200 nM
same,IC50,"[13]; Homo sapiens, T47D",80 nM
same,TGI,[13],7460 nM
same,IC50,"[14]; Homo sapiens, IGROV-1, concentration producing 50% inhibition",60 nM
same,TGI,[14],56900 nM
Nc1nccc2c1ccn2-c1cccc(NC(=O)c2ccc(N3CCOCC3)c(C(F)(F)F)c2)c1 [Compound 1r],IC50,[15],150 to 1780 nM
same,IC50,HS 27 fibroblasts,5720 nM
same,IC50,"FMS kinase; 10-dose duplicate assay, mean ± SEM, starting with 81 µM, threefold serial dilution, read-out: IC50 against FMS kinase",30 ± 20 nM
same,Potency against FMS kinase relative to KIST101029,"FMS kinase; ratio of IC50 values, more potent than lead compound KIST101029",3.2 times
same,IC50,[1],84 ± 3 nM
same,Inhibition percentages against the other 37 tested kinases,[16],less than 28%
same,IC50,[2],150 nM
same,TGI,[2],6860 nM
same,IC50,[3],1080 nM
same,TGI,[3],26000 nM
same,IC50,[4],240 nM
same,TGI,[4],1470 nM
same,IC50,[5],1380 nM
same,TGI,[5],>50000 nM
same,IC50,[6],1300 nM
same,TGI,[6],4670 nM
same,IC50,[7],1260 nM
same,TGI,[7],9960 nM
same,IC50,[8],840 nM
same,TGI,[8],2320 nM
same,IC50,[9],380 nM
same,TGI,[9],10400 nM
same,IC50,[10],300 nM
same,TGI,[10],3140 nM
same,IC50,[11],340 nM
same,TGI,[11],>50000 nM
same,IC50,[12],340 nM
same,TGI,[12],2430 nM
same,IC50,[13],1780 nM
same,TGI,[13],27500 nM
same,IC50,[14]; concentration producing 50% inhibition,700 nM
same,TGI,[14],43300 nM

# From PMC6084503, “Pyrrolo[3,2-c]pyridine derivatives with potential inhibitory effect against FMS kinase: in vitro biological studies” (Journal of Enzyme Inhibition and Medicinal Chemistry, 2018)
